Data reported in patent US20120101110A1, “Diaza-spiro[5.5]undecanes” (priority 2010, published 2012).

Tests used:
human orexin 1 receptors [1] = target: T1, human orexin 1 receptors (Homo sapiens, UniProt O43613); assay: Radioligand binding assay ([3H]-SB649868 competition), hOx1R; conditions: competition with about 1 nM [3H]-SB649868; CHO or HEK cell membranes expressing human orexin 1 receptor
T1 sequence (O43613 1-425): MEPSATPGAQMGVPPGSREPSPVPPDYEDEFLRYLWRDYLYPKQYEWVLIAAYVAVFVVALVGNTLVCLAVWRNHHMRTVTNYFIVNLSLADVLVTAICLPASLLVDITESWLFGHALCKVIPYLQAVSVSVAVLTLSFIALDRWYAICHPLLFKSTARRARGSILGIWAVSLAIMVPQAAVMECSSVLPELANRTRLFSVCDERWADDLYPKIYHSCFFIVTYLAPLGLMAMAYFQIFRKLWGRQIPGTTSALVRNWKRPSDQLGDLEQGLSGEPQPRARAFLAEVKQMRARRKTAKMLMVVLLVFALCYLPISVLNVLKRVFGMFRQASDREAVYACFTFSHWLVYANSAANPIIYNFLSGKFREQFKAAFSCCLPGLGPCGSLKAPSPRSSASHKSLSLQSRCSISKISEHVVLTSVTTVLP
Method: (§1) The cell pellet was either stored at −80° C. or used directly. Before the experiments, cell membranes were re-suspended in binding assay buffer (10 mM HEPES, 0.5% (w/v) bovine serum albumin, pH 7.5) by homogenisation with a Polytron homogeniser at 50 Hz for 20 s. Cell membranes were also used as made available by commercial providers.
(§2) Bound radioactivity was measured, and data were analysed with the program XLFIT or Graphpad Prism. Protein concentration was determined according to the Bradford/BioRad Protein Assay Kit.
(§3) In competition experiments, cell homogenates (150 μl) were incubated in assay buffer (10 mM HEPES, pH 7.5, 0.5% (w/v) bovine serum albumin, 5 mM MgCl2, 1 mMCaCl2, and tween 0.05%) for 1 h at room temperature with about 1 nM of the radioligand [^3H]-SB649868, 66 Ci/mmole, 50 μl), and with various concentrations of compounds of the invention (50 μl) in triplicates; non-specific binding was determined in the presence of almorexant (10 μM). Reactions were terminated by vacuum filtration, 3 washes of ice cold wash buffer (Tris-HCl pH 7.4/10 mM, with NaCl 154 mM). Competition data is expressed in Table 2 as Kd [μM].

human orexin 2 receptors [2] = target: T2, human orexin 2 receptors (Homo sapiens, UniProt O43614); assay: Radioligand binding assay ([3H]-SB649868 competition), hOx2R; conditions: competition with about 1 nM [3H]-SB649868; CHO or HEK cell membranes expressing human orexin 2 receptor; read-out: binding hOx2R Kd
T2 sequence (O43614 1-444): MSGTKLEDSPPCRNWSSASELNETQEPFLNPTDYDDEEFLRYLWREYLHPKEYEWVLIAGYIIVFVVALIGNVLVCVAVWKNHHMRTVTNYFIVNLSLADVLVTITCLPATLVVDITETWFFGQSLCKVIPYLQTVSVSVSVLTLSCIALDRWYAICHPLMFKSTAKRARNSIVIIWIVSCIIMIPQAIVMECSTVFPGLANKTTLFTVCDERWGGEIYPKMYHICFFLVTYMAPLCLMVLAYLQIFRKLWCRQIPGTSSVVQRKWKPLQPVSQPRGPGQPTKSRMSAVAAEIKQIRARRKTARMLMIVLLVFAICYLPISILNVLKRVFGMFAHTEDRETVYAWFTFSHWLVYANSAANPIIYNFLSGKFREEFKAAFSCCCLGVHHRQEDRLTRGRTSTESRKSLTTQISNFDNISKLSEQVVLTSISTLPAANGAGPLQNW
Method: as §1, §2
as §3, with “μM).” for “μM). Reactions were terminated by vacuum filtration, 3 washes of ice cold wash buffer (Tris-HCl pH 7.4/10 mM, with NaCl 154 mM). Competition data is expressed in Table 2 as Kd [μM].”

human orexin 2 receptors [3] = target: T2, human orexin 2 receptors; assay: Calcium accumulation in cells (FLIPR), hOx2R; assay type: cell-based; conditions: cells expressing human orexin 2 receptor; inhibition of orexin A-induced calcium accumulation; Cheng and Prusoff correction
Method: Cells expressing human orexin 1 or human orexin 2 receptors, were seeded at 8,000 cells/well in 384 well black-walled clear bottom, poly-D-lysine coated plates. After 24 h, the medium was removed and cells were washed once with phosphate buffered saline and serum-deprived overnight in assay buffer (130 mM NaCl, 5.4 mM KCl, 1.8 mM CaCl2, 0.8 mM MgSO4, 0.9 mM NaH2PO4, 25 mM glucose, 20 mM HEPES, pH 7.4) containing bovine serum albumin (1% w/v).
On the day of the experiment, the cells seeded in black plates were treated with assay buffer containing the Ca^2+sensitive fluorescent dye Fluo-4-AM (2 μM), and probenecid (0.1 mM). After 1 h plates were washed twice with, and resuspended in, assay buffer containing probenecid (0.1 mM) using a multi plate washer. […] Fluorescence measurements were then continued every 1 S for 120 S followed by every 4 S for 240 S.
The measurements were typically made in two sequences:
Compounds of formula I were tested usually in a concentration range from 10^−9 M to 10^−5 M. In the second round, performed one hour later (to allow for equilibration), Orexin A was tested either in the absence (calibration curves, Orexin A agonist controls) or in the presence of compounds of formula I to determine antagonism.

human orexin 1 receptors [4] = target: T1, human orexin 1 receptors; assay: Calcium accumulation in cells (FLIPR), hOx1R; conditions: for inhibition at 10 µM: read-out: FLIPR hOx1R % inhibition value

| Structure (SMILES) | Kd (human orexin 1 receptors [1]) [nM] | Kd (human orexin 2 receptors [2]) [nM] | Ki (human orexin 2 receptors [3]) [nM] | inhibition at 10 µM (human orexin 1 receptors [4]) [%] | Ki (human orexin 1 receptors [4]) [nM] |
| --- | --- | --- | --- | --- | --- |
| Cc1cc(C)nc(N2CCC3(CCCN(Cc4ccccc4-c4nc(C)no4)C3=O)CC2)n1 [Example 1, 9-(4,6-dimethylpyrimidin-2-yl)-2-(2-(3-methyl-1,2,4-oxadiazol-5-yl)benzyl)-2,9-diazaspiro[5.5]undecan-1-one] | 2020 | 66 |  |  |  |
| Cc1cncc(N2CCC3(CCCN(Cc4c[nH]c5ccccc45)C3=O)CC2)c1 [Example 58, 2-((1H-indol-3-yl)methyl)-9-(5-methylpyridin-3-yl)-2,9-diazaspiro[5.5]undecan-1-one] |  |  | 156 | 31 |  |
| COc1ccc(N2CCC3(CCCN(Cc4c[nH]c5ccccc45)C3=O)CC2)cc1OC [Example 59, 2-((1H-indol-3-yl)methyl)-9-(3,4-dimethoxyphenyl)-2,9-diazaspiro[5.5]undecan-1-one] |  |  | 1380 | 15 |  |
| COc1cccc(N2CCC3(CCCN(Cc4c[nH]c5ccccc45)C3=O)CC2)c1 [Example 60, 2-((1H-indol-3-yl)methyl)-9-(3-methoxyphenyl)-2,9-diazaspiro[5.5]undecan-1-one] |  |  | 228 |  | 3110 |
| COc1cncc(N2CCC3(CCCN(Cc4c[nH]c5ccccc45)C3=O)CC2)c1 [Example 62, 2-((1H-indol-3-yl)methyl)-9-(5-methoxypyridin-3-yl)-2,9-diazaspiro[5.5]undecan-1-one] |  |  | 117 | 31 |  |
| Cc1cc(N2CCC3(CCCN(Cc4c[nH]c5ccccc45)C3=O)CC2)cc(C)n1 [Example 63, 2-((1H-indol-3-yl)methyl)-9-(2,6-dimethylpyridin-4-yl)-2,9-diazaspiro[5.5]undecan-1-one] |  |  | 1280 | 16 |  |
| Cc1ccc(N2CCC3(CCCN(Cc4c[nH]c5ccccc45)C3=O)CC2)nc1C [Example 64, 2-((1H-indol-3-yl)methyl)-9-(5,6-dimethylpyridin-2-yl)-2,9-diazaspiro[5.5]undecan-1-one] |  |  | 150 |  | 3370 |
| Cc1cccnc1N1CCC2(CCCN(Cc3c[nH]c4ccccc34)C2=O)CC1 [Example 66, 2-((1H-indol-3-yl)methyl)-9-(3-methylpyridin-2-yl)-2,9-diazaspiro[5.5]undecan-1-one] |  |  | 991 | 36 |  |
| Cc1ccc(N2CCC3(CCCN(Cc4c[nH]c5ccccc45)C3=O)CC2)nc1 [Example 68, 2-((1H-indol-3-yl)methyl)-9-(5-methylpyridin-2-yl)-2,9-diazaspiro[5.5]undecan-1-one] |  |  | 798 | 14 |  |
| N#Cc1ccc(N2CCC3(CCCN(Cc4c[nH]c5ccccc45)C3=O)CC2)nc1 [Example 69, 6-(2-((1H-indol-3-yl)methyl)-1-oxo-2,9-diazaspiro[5.5]undecan-9-yl)nicotinonitrile] |  |  | 320 | 31 |  |
| Cc1nccc(N2CCC3(CCCN(Cc4c[nH]c5ccccc45)C3=O)CC2)n1 [Example 70, 2-((1H-indol-3-yl)methyl)-9-(2-methylpyrimidin-4-yl)-2,9-diazaspiro[5.5]undecan-1-one] |  |  | 240 |  | 1810 |
| Cc1cc(N2CCC3(CCCN(Cc4c[nH]c5ccccc45)C3=O)CC2)nc(C)n1 [Example 71, 2-((1H-indol-3-yl)methyl)-9-(2,6-dimethylpyrimidin-4-yl)-2,9-diazaspiro[5.5]undecan-1-one] |  |  | 166 | 31 |  |
| Cc1cnc(N2CCC3(CCCN(Cc4c[nH]c5ccccc45)C3=O)CC2)cn1 [Example 72, 2-((1H-indol-3-yl)methyl)-9-(5-methylpyrazin-2-yl)-2,9 diazaspiro[5.5]undecan-1-one] |  |  | 280 | 16 |  |
| COCc1cccc(N2CCC3(CCCN(Cc4c[nH]c5ccccc45)C3=O)CC2)n1 [Example 73, 2-((1H-indol-3-yl)methyl)-9-(6-(methoxymethyl)pyridin-2-yl)-2,9-diazaspiro[5.5]undecan-1-one] |  |  | 639 | 30 |  |
| N#Cc1cc(C#N)nc(N2CCC3(CCCN(Cc4c[nH]c5ccccc45)C3=O)CC2)n1 [Example 76, 2-(2-((1H-indol-3-yl)methyl)-1-oxo-2,9-diazaspiro[5.5]undecan-9-yl)pyrimidine-4,6-dicarbonitrile] |  |  | 1130 | < 10 |  |
| N#Cc1cncc(N2CCC3(CCCN(Cc4c[nH]c5ccccc45)C3=O)CC2)n1 [Example 77, 6-(2-((1H-indol-3-yl)methyl)-1-oxo-2,9-diazaspiro[5.5]undecan-9-yl)pyrazine-2-carbonitrile] |  |  | 173 |  | 3630 |
| CCc1ccnc(N2CCC3(CCCN(Cc4c[nH]c5ccccc45)C3=O)CC2)n1 [Example 79, 2-((1H-indol-3-yl)methyl)-9-(4-ethylpyrimidin-2-yl)-2,9-diazaspiro[5.5]undecan-1-one] |  |  | 126 |  | 708 |
| Cc1nnc(N2CCC3(CCCN(Cc4c[nH]c5ccccc45)C3=O)CC2)s1 [Example 85, 2-((1H-indol-3-yl)methyl)-9-(5-methyl-1,3,4-thiadiazol-2-yl)-2,9-diazaspiro[5.5]undecan-1-one] |  |  | 664 | 42 |  |
| Cc1cnc(C)c(N2CCC3(CCCN(Cc4c[nH]c5ccccc45)C3=O)CC2)n1 [Example 86, 2-((1H-indol-3-yl)methyl)-9-(3,6-dimethylpyrazin-2-yl)-2,9-diazaspiro[5.5]undecan-1-one] |  |  | 545 | 22 |  |
| COc1cc(N2CCC3(CCCN(Cc4c[nH]c5ccccc45)C3=O)CC2)ncn1 [Example 87, 2-((1H-indol-3-yl)methyl)-9-(6-methoxypyrimidin-4-yl)-2,9-diazaspiro[5.5]undecan-1-one] |  |  | 351 | 20 |  |
| O=C1N(Cc2c[nH]c3ccccc23)CCCC12CCN(c1ccc(C(F)(F)F)cn1)CC2 [Example 89, 2-((1H-indol-3-yl)methyl)-9-(5-(trifluoromethyl)pyridin-2-yl)-2,9-diazaspiro[5.5]undecan-1-one] |  |  | 426 | 18 |  |
| Cc1ccnc(N2CCC3(CCCC(=O)N3Cc3ccccc3-c3nc(C)no3)CC2)n1 [Example 99, 1-(2-(3-methyl-1,2,4-oxadiazol-5-yl)benzyl)-9-(4-methylpyrimidin-2-yl)-1,9-diazaspiro[5.5]undecan-2-one] |  |  | 614 | 12 |  |
| COCc1cccc(CN2CCCC3(CCN(c4nc(C)cc(C)n4)CC3)C2=O)c1 [Example 125, 9-(4,6-dimethylpyrimidin-2-yl)-2-(3-(methoxymethyl)benzyl)-2,9-diazaspiro[5.5]undecan-1-one] |  |  | 177 | 22 |  |
| COCc1ccccc1CN1CCCC2(CCN(c3nc(C)cc(C)n3)CC2)C1=O [Example 126, 9-(4,6-dimethylpyrimidin-2-yl)-2-(2-(methoxymethyl)benzyl)-2,9-diazaspiro[5.5]undecan-1-one] |  |  | 140 | 31 |  |
| COCc1cccc(CN2CCCC3(CCN(c4nc(C)cc(OC)n4)CC3)C2=O)c1 [Example 127, 9-(4-methoxy-6-methylpyrimidin-2-yl)-2-(3-(methoxymethyl)benzyl)-2,9-diazaspiro[5.5]undecan-1-one] |  |  | 100 |  | 2110 |
